Laboratory results: patent publication US20240216369A1, “THE USE OF A SPLICING MODULATOR FOR A TREATMENT SLOWING PROGRESSION OF HUNTINGTON'S DISEASE” (Novartis AG, priority 2019, published 2024)
“Also recorded” adds a separate entry of the source.

What was measured:
Assay type in all cases: in vivo
total HTT transcript = assay: Repeat oral dosing in BacHD mice: total HTT transcript in blood; conditions: 12 or 24 mg/kg oral, thrice weekly for three weeks; listed as branaplam
Protocol: For the repeat dosing study, twenty-four BacHD mice (FVB/N-Tg(HTT*97Q)IXwy/J transgenic mice—Jackson Laboratories) were used for the experiment. Animal protocols were approved by the Children's Hospital of Philadelphia Institutional Animal Care and use Committee. Mice were housed in a temperature-controlled environment on a 12-h light/dark cycle. Food and water were provided ad libitum.
For the repeat dosing study, branaplam or vehicle was administered by oral gavage 3 times a week for 3 consecutive weeks. Mice were divided in 4 groups (n=6 mice/group) and treated with branaplam (12 mg/kg—1 group, or 24 mg/kg—2 groups), or vehicle (1 groups) as control. […] The amount of branaplam or vehicle administrated to each mouse was based on the weight recorded the day of dosing. […]
RNA from blood was extracted using PAXgene blood RNA kit (Qiagen) according to manufacturer protocol. The RNA was quantified by Nanodrop 2000 (Thermo Scientific). cDNAs were synthesized from 140-400 ng RNA using Maxima First strand cDNA synthesis kit using a mix of oligo dT and random hexamers (Thermo Scientific) in 20 uL reaction at 25° C. for 10 min, 50° C. for 15 min then 85° C. for 5 min. Quantitative PCR was performed using Taqman Fast Advanced master mix (Thermo Scientific) in 20 uL with 4 uL of cDNA reaction and primers specific for each genes. […]

mutant HTT protein = assay: Mouse population PK/PD turnover model based on BacHD mouse; conditions: for Imax: set to 1
Description: For the development of the PK/PD relationship, the concentration of mutant HTT protein in the brain of BacHD mice and its changes after branaplam administration were used as PD biomarker (Example 1a). To increase the data base, all concentrations of the mutant HTT protein were pooled. The correlation between branaplam concentrations in plasma and the mutant HTT protein concentrations in the brain were investigated by means of a turnover model (described below) considering the inhibition of the production of mutant HTT protein in the brain. Since mutant HTT protein was determined in brain cortex and brain striatum, the PK/PD correlations were executed for both brain parts separately. […] For the execution of the population PK/PD model, the PK parameters (presented in Table 6) from the previously described population PK model were fixed and the PD parameters were calculated. The Monolix software (Version 2018R1, Lixoft) and its turnover model described in the library (pkpd/oral1_2cpt_SigmoidindirectModelinhibitionKin_TlagkaCIV1QV2R0koutimaxIC50gamma) was used to determine the PD parameters in the mouse. The PD part of the model can be described by the following equation:
mutant HTT protein change over time=kin*(1−I max*max(Cc,0)^gamma/(max(Cc,0)^gamma+IC50^gamma))−kout*R • kin: synthesis rate of mutant HTT protein • kout: degradation rate of mutant HTT protein • Imax: maximum inhibition effect • IC50: half-maximum inhibitory concentration • gamma: sigmoidicity of the drug effect • max(Cc,0): branaplam plasma concentration • R: mutant HTT protein level at a given time with baseline R0 of 1 since only relative changes to the baseline were determined in the BacHD mouse model, Example 1a
It has to be noted, that the maximum inhibitory effect was set to 1 and the mutant HTT protein baseline, R0, was set to 1 since only relative changes to the baseline were determined in the BacHD mouse (Example 1a).

[1] = Mouse population PK model (plasma); conditions: popPK parameters (plasma)
Protocol: For the establishment of the PK/PD relationship and the development of a mouse PK/PD model, the PK parameters in mouse plasma were estimated considering PK data from studies with male C57BL/6 mice (10 mg/kg, single dose), rasH2 mice (1, 3, 4 and 10 mg/kg, repeated daily doses), and BacHD mice (10 and 50 mg/kg, single dose; 12 and 24 mg/kg, repeated, three times a week doses). […] The population PK model was described and executed by Monolix software (Version 2018R1, Lixoft).

CC1(C)CC(Oc2ccc(-c3ccc(-c4cn[nH]c4)cc3O)nn2)CC(C)(C)N1 [Compound 18, 5-(1H-pyrazol-4-yl)-2-(6-((2,2,6,6-tetramethylpiperidin-4-yl)oxy)pyridazin-3-yl)phenol]
total HTT transcript in blood (total HTT transcript): robust lowering; also recorded: lowers
time of maximum decrease of mutant HTT protein in the brain (mutant HTT protein; BacHD mouse): about 72 h post dose
IC50 (plasma concentration, inhibition of mutant HTT protein production) (mutant HTT protein; popPD parameters (cortex), BacHD mouse): 0.174 µg/mL
Imax (mutant HTT protein; popPD parameters (cortex)): 1
IC50 (plasma concentration, inhibition of mutant HTT protein production) (mutant HTT protein; popPD parameters (striatum), BacHD mouse): 0.0682 µg/mL
Imax (mutant HTT protein; popPD parameters (striatum)): 1
CL/F ([1]; C57BL/6, rasH2, BacHD (pooled), other: extra-vascular administration): 55.8 mL/min/kg
Q/F [1]: 8.4 mL/min/kg
V1 [1]: 28.2 L/kg
V2 [1]: 32.5 L/kg
ka [1]: 0.429 h⁻¹
Tlag ([1]; pooled C57BL/6, rasH2 and BacHD data): 0.346 h
